From patent publication US7338778B2, “Luminescent method for determining cell oxygen consumption” (Becton, Dickinson and Company, priority 1991, dated 2008)

How the values were obtained:
[1] = tested on: E. coli (ATCC #25922); assay: Effect of antibiotics on oxygen consumption of E. coli, DPA indicator tray (Example 10); format: cell-based; details: all concentrations (0.5 to 8 ug/ml), 4 hours
[2] = tested on: E. coli (ATCC #25922); assay: Effect of antibiotics on oxygen consumption of E. coli, Ru(BiPy)3Cl2 indicator tray (Example 9); format: cell-based; details: all concentrations (0.5 to 8 ug/ml), 4 hours
Experimental: A 96 well Microtiter tray was produced essentially as in Example 1, except that tris-(2,2′ bipyridyl)-ruthenium (II) chloride hexahydrate (Aldrich Chemical Company, Milwaukee, Wis.) [Ru(BiPy)3Cl2] was substituted for Ru(DPP)3Cl2 in the silicone mixture. A second tray containing 9,10-diphenyl anthracene (DPA) was also prepared. All wells were charged with 150 ul of 1×10^7 CFU/ml E. coli (ATCC #25922) in broth. Table 3 lists the results at 0, 1, 2, 3, and 4 hours after addition of organisms.
(§1) A 0.5 McFarland suspension of E. coli (ATCC #25922) in Broth A (see Example 1) was prepared using an A-Just nephelometer. […] The trays were incubated at 37° C. for 4 hours and their fluorescence measured in a Fluoroskan II fluorometer.

[3] = tested on: E. coli (ATCC #25922); assay: Effect of antibiotics on E. coli, Ru(DPP)3Cl2 indicator tray (Example 8); format: cell-based; details: all concentrations (0.5 to 8 ug/ml), 4 hours
Experimental: as §1
The fluorescent compound tris 4,7-diphenyl-1,10-phenanthroline ruthenium (II) chloride (Ru(DPP)3Cl2) was synthesized using the procedure of Watts and Crosby (J. Am.Chem. Soc. 93, 3184(1971)). A total of 3.6 mg of the compound was dissolved in 2.0 ml dimethyl sulfoxide (D-5879, Sigma Chemical, St. Louis, Mo.) and the resultant solution was then added slowly, with stirring, to 1300 ml silicone rubber forming solution (Water Based Emulsion #3-5024, Dow Corning, Midland, Mich.). A 35 microliter aliquot of the mixture was subsequently dispensed into each well of a 96 well, flat bottom, white microtiter tray (#011-010-7901, Dynatech, Chantilly, Va.), and the system was subsequently cured overnight in a low humidity (less than 25% RH), 60° C. incubator. After curing, the trays were washed by either soaking or by filling and emptying each well several times with each of the following reagents; a) absolute ethanol, b) 0.1 M phosphate buffer pH 7.2, c) hot distilled water (about 45° C.) and d) ambient temperature distilled water.

[4] = tested on: Pseudomonas aeruginosa (ATCC #10145); details: 1.5×10^8 CFU/ml, 37° C., times less than two hours
Experimental: A suspension containing about 3×10^8 CFU/ml, of Pseudomonas aeruginosa (ATCC #10145) in Broth A was prepared using an A-Just nephelometer. A total of 150 ul of the suspension was placed in each well of the indicator trays prepared as in Example 1; these suspensions were then diluted with solutions of phenol or copper sulfate (which are deleterious to microbial growth) to a final concentration of 1.5×10^8 CFU/ml. The trays were incubated at 37° C. and their fluorescence measured in a Fluoroskan II at 10 minute intervals.

[5] = tested on: HL60 cells; assay: Cytotoxicity assay in oxygen sensor plates; format: cell-based; details: Homo sapiens, HL-60, HL60 cells, read-out: IC50 O2 Sensor
Experimental: Oxygen sensor plates were prepared by the general methods described herein. Falcon 1177 polystyrene 96 well U-bottom plates (BD Labware) were used for all experiments. The fluorescent dye Ru(DPP)3Cl2 was adsorbed to silica gel by rotary evaporation of ethanolic solutions of the dye with the silica gel. The adsorbed dye-silica and a moisture-cure clear silicone were mixed manually and immediately applied to plate wells with approximately 17 uL silicone per well. These were cured for 2-3 days in a controlled humidity incubator.
All data was obtained with a BMG Polarstar fluorimeter at 37° C. using the bottom plate reading configuration. The bandpass filters were 465 nm for excitation and 590 nm for emission. For the experiments with […]®, a Cytofluor 4000 fluorometer was used with a 485 nm excitation filter and a 580 nm emission filter. Data was read at selected time intervals. Normalized fluorescence data was generally obtained by dividing well values at selected time points by the same well's initial reading with only media or buffer present prior to adding cells.
Cells used for cytotoxicity and quantitation experiments (HL60, U937; ATCC) were grown in tissue culture media recommended by the supplier (RPMI; Gibco and ATCC, respectively). The media was supplemented with either 20% fetal bovine serum (Hyclone) for the HL60 cells or 10% FBS for the U937 cells, with the addition of penicillin, streptomycin and fungizone (Gibco) to prevent microbial contamination. Cells were maintained in a tissue culture incubator (37° C., 5% CO2, 95% humidity) during all experiments between readings.
HL60 cells (human promyelocytic leukemia cell line, ATCC #45500) were grown in tissue culture media recommended by the supplier (RPMI; Gibco), supplemented with 20% fetal bovine serum, heat inactivated at 50° C. for thirty minutes with the addition of penicillin, streptomycin and fungizone (Gibco) to prevent microbial contamination. Cells were maintained in tissue culture incubator (37° C., 5% CO2, 95% humidity) during all experiments. Fluorescence of the oxygen sensor was read on a Polarstar™ fluorometer (BMG), using 465 nm excitation and 590 nm emission filters.
100 uL of tissue culture media was aliquoted into the wells of the Oxygen sensor plate and plate was allowed to equilibrate in the tissue culture incubator for 1 hour prior to taking the initial reading. This reading was used to normalize all subsequent readings to account for well to well variability. Cells were resuspended in fresh media at 960,000 cells/mi. Serial 1:2 dilution of this stock was performed and 100 uL of each dilution was alliquoted across the length of the plate in replicates of 12 (rows B-H), with final cell/well number from 1,500 to 96,000. In row A, 100 uL of tissue culture media was alliquoted into the wells in lieu of cells (no-cells control). Fluorescence measurements were taken every 24 hours over 5 days. The actual number of cells present was counted with a hemocytometer by sampling the parallel well (same seeding cell number). Mean fluorescence from 5 wells per data point (n=5) was plotted against the counted cell number (FIG. 10). Error bars are standard deviation of the mean.
The experiment was performed as described in Example 18, with the following exceptions. Serial dilutions of vinblastine were prepared at twice the final concentration (100 nM to 0.1 nM) in tissue culture media.100 uL of the drug dilution in tissue culture media was aliquoted across the width of the plate in replicates of five, reserving one column for no-drug (media only) control. After an initial reading, a constant number of cells (200,000/well) in 100 uL media were added to each well of rows A-E of the oxygen sensor plate, reserving rows F-H for no-cells control. Fluorescence was read at the indicated times. Mean fluorescence from 5 wells per data point (n=5) was plotted against vinblastine concentration (FIG. 12).

[6] = tested on: HL60 cells; assay: Cytotoxicity assay by MTT; format: cell-based; details: Homo sapiens, HL-60, HL60 cells, read-out: IC50 MTT
Experimental: In parallel with the oxygen sensor assays, MTT assays were performed using a Cell Titer Kit™ (Promega), as in Example 20, with the following exceptions. For each time point (corresponding to oxygen sensor assay time point), one flat-bottom 96 well microtiter plate (Falcon) was used. 50 uL of drug dilution in tissue culture media was used for initial reading and cells were suspended in 50 uL media, to the final volume of 100 uL. At indicated time points, 10 uL of MTT reagent was added per well for 1 hour, after which 100 uL of the stop/lysis buffer was added. Plates were sealed with Parafilm™ and cell lysis occurred overnight. Absorbance (570 nm corrected by absorbance at 750 nm) was read using a Thermomax Microplate Reader (Molecular Devices). Mean absorbance from 5 wells per data point, with standard deviation as error bars, was plotted against vinblastine concentration (FIG. 13).
These experiments was performed as described in Example 20, with the exception that appropriate dilutions of the above reagents were substituted for vinblastine: 0.01 nM to 10000 nM methotrexate, 0.00001 to 10 mM sodium azide, and 2 to 2000 uM SDS respectively.

## O=C(O)c1cn(C2CC2)c2cc(N3CCNCC3)c(F)cc2c1=O [Ciprofloxacin, ciprofloxacin]
[1]
  susceptibility of E. coli by fluorescence counts: sensitive
[2]
  susceptibility of E. coli by fluorescence counts: sensitive
[3]
  susceptibility of E. coli by fluorescence counts: sensitive

## Oc1ccccc1 [phenol]
[4]
  concentration at which wells had no increase in fluorescence signal (absence of actively metabolizing organisms): ≥ 1 gram/liter

## CCCCCCCCCCCCOS(=O)(=O)[O-].[Na+] [SDS, Sodium Dodecyl Sulfate]
[5]; 24 hours
  IC50: 340000 nM
[5]; 48 hours
  IC50: 300000 nM
[5]; 72 hours
  IC50: 300000 nM
[6]; 24 hours
  IC50: 500000 nM
[6]; 48 hours
  IC50: 440000 nM
[6]; 72 hours
  IC50: 430000 nM

## CC[C@]1(O)C[C@@H]2CN(CCc3c([nH]c4ccccc34)[C@@](C(=O)OC)(c3cc4c(cc3OC)N(C)[C@H]3[C@@](O)(C(=O)OC)[C@H](OC(C)=O)[C@]5(CC)C=CCN6CC[C@]43[C@@H]65)C2)C1 [Vinblastine, vinblastine]
[5]; 48 hours
  IC50: 11 nM
[5]; 72 hours
  IC50: 11 nM
[5]; 96 hours
  IC50: 9 nM
[5]; 120 hours
  IC50: 9 nM
[6]; 48 hours
  IC50: 9 nM
[6]; 72 hours
  IC50: 8 nM
[6]; 96 hours
  IC50: 7 nM
[6]; 120 hours
  IC50: 6.4 nM
